# Results from PMC9628989 (Antiviral Research, 2007).
# Like-named read-outs stand apart in the source and are kept apart here.
# Assays:
# in vitro [1] = details: CD-1, mouse, s9, pH 7.4, Half-life
# [2] = mouse, in vivo, po; cited from earlier work
# in vitro [3] = details: cynomolgus monkey, s9, pH 7.4, Half-life
# [4] = CD-1, mouse, s9, 0 h, pH 7.4
# in vitro [5] = details: both, CD-1, mouse, hepatocytes
# [6] = human, s9, 0 h, pH 7.4
# [7] = cynomolgus monkey, s9, 0 h, pH 7.4
# [8] = in vivo; cited from earlier work
# in vitro [9] = details: both, human, hepatocytes
# [10] = in vivo; cited from earlier work; remark: listed apart in the source
SMILES,half-life (in vitro [1]),orally administered drug accounted for in plasma [2],half-life (in vitro [3]),Percentage of CMX001 remaining at incubation time point 0 min [4],half-life (in vitro [5]),Percentage of CMX001 remaining at incubation time point 0 min [6],Percentage of CMX001 remaining at incubation time point 0 min [7],nephrotoxicity [8],half-life (in vitro [9]),oral bioavailability [10]
"CCCCCCCCCCCCCCCCOCCCOP(=O)(O)CO[C@H](CO)Cn1ccc(N)nc1=O [CMX001, hexadecyloxypropyl ester of CDV]",> 1.67 h,approximately 88%,8 min,100%,3.55 h,100%,100%,not been shown to cause nephrotoxicity,3.8 h,
"Nc1ccn(C[C@@H](CO)OCP(=O)(O)O)c(=O)n1 [CDV, [S]-1-[3-hydroxy-2-phosphonylmethoxypropyl]cytosine]",,,,,,,,,,poor oral bioavailability
